Measured values as given in EPA's ToxRefDB 2.

Experiments:
[1] = test system: rat; conditions: Sub-acute repeat dose toxicity; wistar; Oral; Feed; dose end: 21 day; group: systemic; systemic / clinical chemistry / [other] / [other] + systemic / clinical chemistry / 5' nucleotidase / 5' nucleotidase + systemic / organ …
[2] = test system: rat; conditions: Prenatal developmental toxicity study, sprague dawley, Oral, Gavage/Intubation, dose end: 20 GD
[3] = test system: dog; conditions: Subchronic oral toxicity in nonrodent, beagle, Feed, dose end: 16 week, group: systemic, systemic / in life observation / body weight / body weight
[4] = test system: rat; conditions: Subchronic oral toxicity in rodents, sprague dawley, Feed, dose end: 13 week, group: systemic, systemic / in life observation / body weight / body weight + systemic / in life observation / body weight / body weight gain + systemic / in…
[5] = test system: rat; conditions: Subchronic oral toxicity in rodents, sprague dawley, Feed, dose end: 3 month, group: systemic, systemic / in life observation / body weight / body weight + systemic / in life observation / body weight / body weight gain
[6] = test system: rat; conditions: Multigenerational reproductive toxicity study, other, Oral, Feed, dose end: 2 generation
[7] = test system: rat; conditions: Combined chronic toxicity/carcinogenicity, fischer, Oral, Feed, dose end: 24 month, group: systemic
[8] = test system: rat; conditions: Subchronic oral toxicity in rodents, sprague dawley, Feed, dose end: 90 day, group: systemic
[9] = test system: mouse; conditions: Subchronic oral toxicity in rodents, cd1, Feed, dose end: 13 week, group: systemic
[10] = test system: mouse; conditions: Carcinogenicity, cd1, Oral, Feed, dose end: 82 week, group: systemic
[11] = test system: dog; conditions: Chronic toxicity; beagle; Oral; Capsule; dose end: 52 week; group: systemic; systemic / in life observation / clinical signs / abnormal movements + systemic / in life observation / clinical signs / altered breathing …
[12] = test system: dog; conditions: Subchronic oral toxicity in nonrodent, beagle, Capsule, dose end: 90 day, group: systemic, systemic / clinical chemistry / albumin-globulin ratio / albumin-globulin ratio + systemic / clinical chemistry / cholesterol / cholesterol…
[13] = test system: rat; conditions: Developmental neurotoxicity study; sprague dawley; Injection; Intraperitoneal; dose end: 74 PND; group: cannot be grouped; reproductive / reproductive performance / aborted / aborted + developmental / offspring survival late / [other] / [other] + systemic / in …
[14] = test system: mouse; conditions: Carcinogenicity; other; Oral; Feed; dose end: 104 week; group: systemic; systemic / pathology microscopic / liver / vacuolization
[15] = test system: dog; conditions: Chronic toxicity, beagle, Oral, Feed, dose end: 6 month, group: systemic
[16] = test system: dog; conditions: Subchronic oral toxicity in nonrodent, beagle, Feed, dose end: 6 month, group: systemic, systemic / clinical chemistry / alkaline phosphatase (alp/alk) / alkaline phosphatase (alp/alk) + systemic / organ weight / liver / absolute…
[17] = test system: mouse; conditions: Subchronic oral toxicity in rodents, Feed, dose end: 90 day, group: systemic
[18] = test system: rat; conditions: Combined chronic toxicity/carcinogenicity, sprague dawley, Oral, Feed, dose end: 105 week, group: systemic
[19] = test system: rat; conditions: Prenatal developmental toxicity study, other, Oral, Gavage/Intubation, dose end: 15 GD
[20] = test system: rat; conditions: Subchronic oral toxicity in rodents, Feed, dose end: 90 day, group: systemic
[21] = test system: rat; conditions: Subchronic oral toxicity in rodents, sprague dawley, Feed, dose end: 13 week, group: systemic
[22] = group: developmental, developmental / developmental malformation / bone / delayed ossification + developmental / developmental malformation / bone / supernumerary…
[23] = group: maternal, reproductive / reproductive performance / postimplantation loss / postimplantation loss + reproductive / reproductive performance / …
[24] = group: maternal, systemic / clinical chemistry / [other] / [other] + systemic / organ weight / liver / absolute + systemic / organ weight / liver / relative …
[25] = group: offspring, systemic / in life observation / body weight / offspring (pup) weight
[26] = group: parental, systemic / in life observation / body weight / body weight + systemic / in life observation / body weight / body weight gain + systemic / …
[27] = systemic / in life observation / body weight / body weight gain
[28] = systemic / organ weight / thyroid gland / absolute + systemic / organ weight / thyroid gland / relative to body weight
[29] = systemic / clinical chemistry / albumin / albumin + systemic / clinical chemistry / cholesterol / cholesterol + systemic / clinical …
[30] = systemic / clinical chemistry / creatinine / creatinine
[31] = systemic / clinical chemistry / alkaline phosphatase (alp/alk) / alkaline phosphatase (alp/alk) + systemic / hematology / erythrocyte (rbc) …
[32] = systemic / organ weight / liver / absolute + systemic / organ weight / liver / relative to body weight
[33] = systemic / organ weight / liver / absolute + systemic / organ weight / liver / relative to body weight + systemic / clinical chemistry / …
[34] = systemic / pathology microscopic / liver / vacuolization
[35] = systemic / pathology microscopic / liver / vacuolization + systemic / organ weight / liver / absolute + systemic / organ weight / liver / …
[36] = group: developmental, developmental / developmental malformation / bone / absent + developmental / developmental malformation / bone / incomplete ossification + …
[37] = group: maternal, systemic / in life observation / clinical signs / convulsions + systemic / in life observation / clinical signs / fur (altered appearance…
[38] = systemic / organ weight / liver / absolute + systemic / organ weight / liver / relative to body weight + systemic / pathology microscopic / …
[39] = systemic / in life observation / body weight / body weight gain + systemic / in life observation / food consumption / food efficiency + …

## CCCCCCOC(=O)c1ccccc1C(=O)OCCCCCC [Dihexyl phthalate]
[1]
  LEL: 1000 mg/kg/day
  LOAEL: > 1000 mg/kg/day
  NEL: < 1000 mg/kg/day
  NOAEL: ≥ 1000 mg/kg/day
[2]; [22]
  LEL: 250 mg/kg/day
  LOAEL: 250 mg/kg/day
  NEL: < 250 mg/kg/day
  NOAEL: < 250 mg/kg/day
[2]; [23]
  LOAEL: > 750 mg/kg/day
  NOAEL: ≥ 750 mg/kg/day
[2]; [24]
  LEL: 250 mg/kg/day
  NEL: < 250 mg/kg/day

## CCc1cccc(C)c1N(C(=O)CCl)[C@@H](C)COC [S-Metolachlor]
[3]
  LEL: 31.1 mg/kg/day
  LOAEL: > 62 mg/kg/day
  NEL: 15.1 mg/kg/day
  NOAEL: ≥ 62 mg/kg/day
[4]
  LEL: 150 mg/kg/day
  LOAEL: 150 mg/kg/day
  NEL: 15 mg/kg/day
  NOAEL: 15 mg/kg/day
[5]
  LEL: 259 mg/kg/day
  LOAEL: 259 mg/kg/day
  NEL: 23.4 mg/kg/day
  NOAEL: 23.4 mg/kg/day

## C#CCC1=C(C)C(OC(=O)C2C(C=C(C)C)C2(C)C)CC1=O (stereo unspecified) [Prallethrin]
[6]; [25]
  LEL: 156 mg/kg/day
  LOAEL: 156 mg/kg/day
  NEL: 31 mg/kg/day
  NOAEL: 31 mg/kg/day
[6]; [26]
  LOAEL: 156 mg/kg/day
  NEL: 6 mg/kg/day
  NOAEL: 31 mg/kg/day
[6]; group: parental, systemic / in life observation / body weight / body weight gain
  LEL: 31 mg/kg/day
[7]; [27]
  LOAEL: 83.5 mg/kg/day
[7]; systemic / in life observation / body weight / body weight gain + systemic / clinical chemistry / cholesterol / cholesterol + systemic / …
  NOAEL: 16.3 mg/kg/day
[7]; [28]
  LEL: 4 mg/kg/day
  NEL: < 4 mg/kg/day
[8]; [29]
  LOAEL: 230 mg/kg/day
  NEL: 24 mg/kg/day
  NOAEL: 79.1 mg/kg/day
[8]; systemic / clinical chemistry / protein / protein + systemic / organ weight / kidney / absolute + systemic / hematology / eosinophils / …
  LEL: 79.1 mg/kg/day
[9]; [30]
  LEL: 39 mg/kg/day
  NEL: < 39 mg/kg/day
[9]; systemic / in life observation / body weight / body weight + systemic / in life observation / body weight / body weight gain
  LOAEL: 1840 mg/kg/day
[9]; systemic / in life observation / body weight / body weight + systemic / in life observation / body weight / body weight gain + systemic / …
  NOAEL: 808 mg/kg/day
[10]; [27]
  LOAEL: 347 mg/kg/day
[10]; systemic / in life observation / body weight / body weight gain + systemic / organ weight / liver / nos
  NOAEL: 68 mg/kg/day
[10]; systemic / in life observation / clinical signs / fur (altered appearance)
  LEL: 68 mg/kg/day
[10]; systemic / in life observation / clinical signs / fur (altered appearance) + systemic / organ weight / kidney / nos + systemic / organ …
  NEL: 13 mg/kg/day
[11]
  LEL: 5 mg/kg/day
  LOAEL: 5 mg/kg/day
  NEL: 2.5 mg/kg/day
  NOAEL: 2.5 mg/kg/day
[12]
  LEL: 10 mg/kg/day
  LOAEL: 10 mg/kg/day
  NEL: 3 mg/kg/day
  NOAEL: 3 mg/kg/day

## NC(=O)NO [Hydroxyurea]
[13]
  LEL: 2000 mg/kg/day
  LOAEL: > 2000 mg/kg/day
  NEL: < 2000 mg/kg/day
  NOAEL: ≥ 2000 mg/kg/day

## COCC(=O)N(c1c(C)cccc1C)C(C)C(=O)OC (stereo unspecified) [Metalaxyl]
[14]
  LEL: 129 mg/kg/day
  LOAEL: 129 mg/kg/day
  NEL: 24.9 mg/kg/day
  NOAEL: 24.9 mg/kg/day
[15]; systemic / clinical chemistry / alkaline phosphatase (alp/alk) / alkaline phosphatase (alp/alk)
  LOAEL: 30.6 mg/kg/day
[15]; [31]
  LEL: 30.6 mg/kg/day
  NEL: 7.8 mg/kg/day
  NOAEL: 7.8 mg/kg/day
[16]
  LEL: 30.6 mg/kg/day
  LOAEL: 30.6 mg/kg/day
  NEL: 7.8 mg/kg/day
  NOAEL: 7.8 mg/kg/day
[17]; [32]
  LEL: 188 mg/kg/day
  NEL: < 188 mg/kg/day
[17]; [33]
  LOAEL: > 750 mg/kg/day
  NOAEL: ≥ 750 mg/kg/day
[18]; [34]
  LEL: 1.88 mg/kg/day
  NEL: < 1.88 mg/kg/day
[18]; [35]
  LOAEL: 46.6 mg/kg/day
  NOAEL: 9.43 mg/kg/day
[19]; [36]
  LEL: 400 mg/kg/day
  LOAEL: 400 mg/kg/day
  NEL: 250 mg/kg/day
  NOAEL: 250 mg/kg/day
[19]; [37]
  LEL: 250 mg/kg/day
  LOAEL: 250 mg/kg/day
  NEL: 50 mg/kg/day
  NOAEL: 50 mg/kg/day
[20]; [32]
  LEL: 2.5 mg/kg/day
  NEL: < 2.5 mg/kg/day
[20]; [38]
  LOAEL: > 62.5 mg/kg/day
  NOAEL: ≥ 62.5 mg/kg/day

## Cn1sc2c(c1=O)CCC2 [2-Methyl-5,6-dihydro-2H-cyclopenta[d][1,2]thiazol-3(4H)-one]
[21]; systemic / in life observation / body weight / body weight gain + systemic / in life observation / food consumption / food efficiency
  LOAEL: 23.2 mg/kg/day
[21]; [39]
  LEL: 23.2 mg/kg/day
  NEL: 4.6 mg/kg/day
  NOAEL: 4.6 mg/kg/day
